Values of other authors in patent publication US9775789B2, “Topical liposome compositions containing phenolic anti-inflammatory agents and their methods of preparation” (D& J ROSEE INC., priority 2012, dated 2017).

Tests used:
MRSA [1] = details: all 53 MRSA clinical isolates
[2] = test system: nuclear factor kappa beta (NF-κB) in normal human epidermal keratinocytes (NHEK); details: pretreatment of keratinocytes before UVB exposure
keratinocytes [3] = details: 6-week application under occlusion
TNF-α and INF-γ = details: versus control; SEB intraperitoneally
keratinocytes [4] = details: applied during 48 hours, then simulated solar radiation (2 MED); skin biopsy
cultured keratinocytes = details: in vitro
tumor = details: topical application and UV radiation versus controls
[5] = in vitro; superoxide anion and hydroxyl radicals
MRSA [6] = details: time-kill study
[7] = test system: atopic dermatitis (AD) type skin lesions; details: daily topical application after allergen extract; versus vehicle
[8] = test system: cultured squamous carcinoma cells; details: in vitro

O=C(O[C@@H]1Cc2c(O)cc(O)cc2O[C@@H]1c1cc(O)c(O)c(O)c1)c1cc(O)c(O)c(O)c1 [EGCG, epigallocatechin gallate]
minimal inhibitory concentration (MIC) (MRSA [1]): 32 to 128 µg/mL
UVB-induced activation of NFκB [2]: significant dose- and time-dependent inhibition
epidermal thickness (keratinocytes [3]): significant increase
proliferation of keratinocytes (keratinocytes [3]; versus vehicle-treated samples): significantly stimulated
serum levels of TNF-α and INF-γ (TNF-α and INF-γ): significantly reduced
susceptibility of T. rubrum compared with reference antifungals (T. rubrum): more susceptible than to flucytosine and similar to fluconazole
MIC (T. rubrum; 11 clinical isolates of T. rubrum): 1-16 μg per mL
greater increase in keratinocyte cell numbers versus vehicle-treated (keratinocytes [4]): 4 fold
effect on cultured keratinocytes (cultured keratinocytes): dose-dependent stimulatory effect
tumor incidence and size (tumor): significant reductions
ROS scavenging activity [5]: superior to other tea catechins
bactericidal concentration (MRSA [6]; one isolate): 6 times the MIC
bacteriostatic concentration (MRSA [6]; one isolate): 1-2 times the MIC
bactericidal concentration, aqueous solution (MRSA [6]; equivalent of 6 times the MIC): ~0.04%
clinical signs (erythema, edema, scaling and excoriation) [7]: significantly lessened
ear swelling [7]: significantly reduced
UV-induced infiltration of inflammatory leukocytes into the skin (human skin; EGCG pretreatment): inhibited
UV-induced production of hydrogen peroxide, nitric oxide and lipid peroxide in both epidermis and dermis (human skin; topical application before a single UV exposure (4× MED), punch biopsies): markedly decreased
action against cultured squamous carcinoma cells (apoptosis) [8]: inhibitory action
